# Test results taken from publication PMC7561186, “Rational design of balanced dual-targeting antibiotics with limited resistance” (PLoS Biology, 2020).
# pIC50: −log10 of the molar value. Several values for one entry are separate records, joined by “and”; a condition that tells them apart may be missing. Identical values can stand only once. Like-named read-outs stand apart in the source and are kept apart here.
# Legend:
# CHO-K1 cells = assay type: cell-based, hamster; settings: for % Micronucleated cells / Micronucleus Test Result: 4 hours, CHO-K1; for genetic toxicity: CHO-K1 micronucleus assay, in words
# Protocol: Genetic toxicity analysis of compounds was performed in an in vitro micronucleus test, according to the protocol described in Diaz and colleagues (2007), at Eurofins Panlabs (St. Charles, MO, US). Micronucleated cells and micronuclei were enumerated by the use of high-content fluorescent cell imaging. The assay was performed on CHO-K1 cells. […] Experiments were performed in 2 biological replicates. All cell lines were tested as being negative for Mycoplasma contamination.
# [1] = test system: human hERG potassium ion channel; settings: for inhibitory effect on human hERG ion channels: 150 μM, in words; for Significant (hERG inhibition) / Normalized inhibition (%): 150 µM, hERG; for Normalized inhibition (%): n = 8
# Protocol: Inhibition of the human hERG cardiac K+ ion channel was determined by Eurofins Panlabs (St. Charles, MO, USA) by using QPatch automated whole-cell patch-clamp electrophysiology, as described previously. […] During measurements, after whole-cell patch configuration was achieved, the cells were held at −80 mV. Next, a 500-millisecond pulse to −40 mV was delivered to measure the leaking current, which was then subtracted from the tail current’s readout. Then the cell was depolarized to +40 mV for 500 milliseconds and then to −80 mV over a 100-millisecond ramp to elicit the hERG tail current. This workflow was repeated once in every 8 seconds to monitor the current amplitude. The parameters measured during each test were the maximum tail current evoked on stepping to 40 mV and ramping back to −80 mV from the test pulse. All data were filtered for seal quality, seal drop, and current amplitude. The peak current amplitude was calculated before and after compound addition, and the amount of inhibition was assessed by dividing the test compound’s current amplitude by the control’s current amplitude. During our tests, the control was the mean hERG current amplitude collected 15 seconds at the end of each measurement, and the test compound was the mean hERG current amplitude collected in the presence of test compound at the given concentration.
# [2] = test system: S. aureus VISA ATCC 700699 GyrB R144I and GyrB I175T; experiment: Second-step frequency-of-resistance assay in GyrB single mutants; assay type: cell-based
# Protocol: To determine the spontaneous frequency-of-resistance, approximately 10^10 cells from stationary-phase MHBII broth cultures of S. aureus ATCC 700699 and S. aureus ATCC 43300 were plated to antibiotic-containing plates according to a standard protocol to determine frequency-of-resistance. Prior to plating, bacteria were grown overnight in MHBII medium at 37 °C, 250 rpm, collected by centrifugation, and washed once in equal volumes of MHBII broth. From this concentrated cell suspension (250 μL), approximately 10^10 cells were then plated to each MHBII agarose plates. Using agarose instead of agar reduced drug-adsorption and improved the performance of the assay. […] All experiments were performed in at least 3 replicates. Plates were grown at 37 °C for 72 hours. Total CFUs were determined simultaneously in each experiment by plating appropriate dilutions to antibiotic-free MHBII agar plates. Finally, resistance frequencies for each strain were calculated by dividing the number of colonies formed after a 72-hour incubation at 37 °C by the initial viable cell count.
# MCF-7 cells = settings: LDH assay
# Protocol: (§1) Cytotoxicity of compounds on HepG2 and MCF-7 mammalian cell lines was determined by using a standard LDH assay. Briefly, HepG2 and MCF-7 cells were cultured in Eagle’s MEM medium (from Gibco) supplemented with 2 mM L-glutamine (Sigma), 100 U/mL penicillin (Sigma), and 100 μg/mL streptomycin (Sigma), and 10% FBS (Gibco) at 37 °C and under 5% CO2. Next, LDH assays were performed according to manufacturer instructions (Thermo Fisher Scientific, Massachusetts, USA). By using a CyQUANT LDH Cytotoxicity Assay Kit. Firstly, the cells were seeded in 96-well microtiter plates at 10^5 cells/mL (100 μL/well) and allowed to attach overnight. […] Lysis buffer (10 μL, Thermo Fisher Scientific) was then added to the maximal LDH activity control wells and incubated additional 45 minutes. The cell culture supernatant (50 μL) was then transferred to a new 96-well plate and mixed with 50 μL of the reaction mixture. After 30 minutes on room temperature, reactions were stopped with 50 μL of the Stop solution. Absorbance (490 nm and 680 nm) was measured with the automatic microplate reader Synergy 4 Hybrid Microplate Reader (BioTek, VT, USA). All experiments were performed in triplicates and repeated 3 times. Statistical significance (P < 0.05) was calculated with 2-tailed Welch’s t-test between treated groups and DMSO. The percentage of cytotoxicity was determined according to the following equation: %Cytotoxicity=(CompoundtreatedLDHactivity-SpontaneousLDHactivity/MaximumLDHactivity-SpontaneousLDHactivity)*100
# in vitro = settings: human
# Protocol: as §1
# [3] = test system: S. aureus USA300 (MRSA) BAA1556, S. aureus (VRSA) ECL2963646, S. aureus Mu50 (VISA) ATCC 700699; experiment: S. aureus dermal infection model; assay type: in vivo, ICR mice; settings: for Log CFU/Skin: 2% treatment, individual animals; for antibacterial activity after topical application: mouse skin infection, ointment twice daily, MRSA, VISA, VRSA, comparable to mupirocin, in words
# Protocol: The testing strains, S. aureus USA300 (MRSA) BAA1556, S. aureus (VRSA) ECL2963646, and S. aureus Mu50 (VISA) ATCC 700699 were obtained from frozen stocks and thawed at room temperature. Next, an aliquot of 0.2 mL from each stock was transferred to 20 mL BHI broth and incubated at 37 °C with shaking (120 rpm) for 8 hours. Cells in 20 mL culture were pelleted by centrifugation, 3,500g for 15 minutes, and then resuspended in 10 mL cold PBS, then cells were diluted in PBS to obtain the inoculum sizes of 1×10^5 or 1× 10^6 CFU/mL, based on the testing strain’s virulence. In all cases, the actual colony counts were determined by plating dilutions in at least 3 replicates onto MHBII agar plates followed by 24 hours’ incubation and colony counting.
# For dermal infections, groups of 5 female ICR mice weighing 24 ± 4 g, provided by BioLasco Taiwan (under a Charles River Laboratories Technology Licensee), were used. Animals were acclimated for 3 days prior to use and were confirmed to be in good health. Prior to infection, animals were anesthetized with etomidate-lipuro emulsion (20 mg /10 mL) at 20 mg/kg by IV injection, and then the fur on the back was removed by an electric shaver, and the epidermal layer was disrupted with an abrasive paper according to the protocol developed by Kugelberg and colleagues. Mice were inoculated topically on the wound area with testing strain suspension, 5 μL/mouse. The target inoculation densities were 1×10^5 or 1× 10^6 CFU/mL, based on the corresponding strain’s virulence. Following infection, animals were housed separately. […] Test articles were administered topically (20 μL/mouse) twice daily. One no-treatment group was euthanized at 1 hour after infection for initial bacterial counts, and the other treatment groups were dosed twice daily with the test compounds and sacrificed either at 25 hours or at 73 hours postinfection. Animals were euthanized with CO2 asphyxiation and the infected skin, a 2 cm^2 area, was excised. The skin samples of the wound infection (around 2 cm^2 areas) were then homogenized in 1 mL PBS (pH 7.4) with a polytron homogenizer. A 0.1 mL aliquot of each homogenate was used for serial 10-fold dilutions and plated onto MHBII agar plates for bacterial enumeration. Statistical significance (P <0.05) was assessed with 1-way ANOVA followed by Dunnett’s method. A significant (P <0.05) decrease in the bacterial counts of the treated animals compared with the vehicle control group was considered significant antimicrobial activity.
# HepG2 cells = settings: LDH assay
# Protocol: as §1
# [4] = Staphylococcus aureus ECL 2963646 (VRSA)
# [5] = Staphylococcus aureus Mu50 ATCC 700699 (VISA)
# [6] = Staphylococcus aureus USA300 (MRSA)
Compound,% Micronucleated cells (CHO-K1 cells; 1.3 x 10^-4 M) [%],Micronucleus Test Result (CHO-K1 cells; 1.3 x 10^-4 M),% Micronucleated cells (CHO-K1 cells; 2.5 x 10^-4 M) [%],Micronucleus Test Result (CHO-K1 cells; 2.5 x 10^-4 M),% Micronucleated cells (CHO-K1 cells; 3.1 x 10^-5 M) [%],Micronucleus Test Result (CHO-K1 cells; 3.1 x 10^-5 M),% Micronucleated cells (CHO-K1 cells; 5.0 x 10^-4 M) [%],Micronucleus Test Result (CHO-K1 cells; 5.0 x 10^-4 M),% Micronucleated cells (CHO-K1 cells; 6.2 x 10^-5 M) [%],Micronucleus Test Result (CHO-K1 cells; 6.2 x 10^-5 M),genetic toxicity (CHO-K1 cells),inhibitory effect on human hERG ion channels [1],Significant (hERG inhibition) [1],Normalized inhibition (%) [1] [%],"Resistant colony number ([2]; VISA GyrB I175T, 4xMIC)","Resistant colony number ([2]; VISA GyrB R144I, 4xMIC)","Frequency-of-Resistance ([2]; VISA GyrB R144I, 12xMIC)","Resistant colony number ([2]; VISA GyrB R144I, 12xMIC)","Frequency-of-Resistance ([2]; VISA GyrB R144I, 16xMIC)","Resistant colony number ([2]; VISA GyrB R144I, 16xMIC)",other results
Cc1[nH]c(C(=O)Nc2nc3ccc(C(=O)O)cc3s2)c(Cl)c1Cl [ULD1],0.32,- (A negative test (-) result indicates P > 0.05 by t-test and percentage of micronucleated cells less than 2-fold higher than the background level),0.56,- (A negative test (-) result indicates P > 0.05 by t-test and percentage of micronucleated cells less than 2-fold higher than the background level),0.47,- (A negative test (-) result indicates P > 0.05 by t-test and percentage of micronucleated cells less than 2-fold higher than the background level),0.57,- (A negative test (-) result indicates P > 0.05 by t-test and percentage of micronucleated cells less than 2-fold higher than the background level),0.36,- (A negative test (-) result indicates P > 0.05 by t-test and percentage of micronucleated cells less than 2-fold higher than the background level),No genetic toxicity,No statistically significant inhibitory effect,No (Only results showing an inhibition higher than 50% are considered to represent significant effects of the tested compounds),5.5,lawn,lawn,4.57E-08,1288,1.61E-08,454,"Resistant colony number ([2]; VISA GyrB I175T, 8xMIC): lawn; Max. % inhibition at 100 µM (MCF-7 cells): Max. % inhibition at 100 µM: 0%; pIC50 (in vitro): < 4.00; Log CFU/Skin [3, 4]: 5.77 Log CFU/Skin and 5.81 Log CFU/Skin and 5.92 Log CFU/Skin and 6.59 Log CFU/Skin and 5.61 Log CFU/Skin; Log CFU/Skin [3, 5]: 5 Log CFU/Skin and 5.57 Log CFU/Skin and 5.65 Log CFU/Skin and 4.91 Log CFU/Skin and 5.98 Log CFU/Skin; Log CFU/Skin [3, 6]: 4.61 Log CFU/Skin and 3.68 Log CFU/Skin and 4.97 Log CFU/Skin and 3.75 Log CFU/Skin and 4.86 Log CFU/Skin; antibacterial activity after topical application [3]: potent antibacterial activity; Max. % inhibition at 100 µM (HepG2 cells): Max. % inhibition at 100 µM: 1.53%"
Cc1[nH]c(C(=O)Nc2nc3c(OCc4ccccc4)cc(C(=O)O)cc3s2)c(Cl)c1Cl [ULD2],1.07,- (A negative test (-) result indicates P > 0.05 by t-test and percentage of micronucleated cells less than 2-fold higher than the background level),1.36,- (A negative test (-) result indicates P > 0.05 by t-test and percentage of micronucleated cells less than 2-fold higher than the background level),0.57,- (A negative test (-) result indicates P > 0.05 by t-test and percentage of micronucleated cells less than 2-fold higher than the background level),0.78,- (A negative test (-) result indicates P > 0.05 by t-test and percentage of micronucleated cells less than 2-fold higher than the background level),0.49,- (A negative test (-) result indicates P > 0.05 by t-test and percentage of micronucleated cells less than 2-fold higher than the background level),No genetic toxicity,No statistically significant inhibitory effect,No (Only results showing an inhibition higher than 50% are considered to represent significant effects of the tested compounds),27,lawn,lawn,4.65E-08,1312,3.55E-11,1,"Resistant colony number ([2]; VISA GyrB R144I, 8xMIC): lawn; Max. % inhibition at 100 µM (MCF-7 cells): Max. % inhibition at 100 µM: 8.43%; pIC50 (in vitro): < 4.00; Log CFU/Skin [3, 4]: 5.96 Log CFU/Skin and 5.93 Log CFU/Skin and 5.51 Log CFU/Skin and 5.91 Log CFU/Skin and 5.45 Log CFU/Skin; Log CFU/Skin [3, 5]: 4.76 Log CFU/Skin and 5.44 Log CFU/Skin and 5.93 Log CFU/Skin and 4.96 Log CFU/Skin and 5.73 Log CFU/Skin; Log CFU/Skin [3, 6]: 4.14 Log CFU/Skin and 4.81 Log CFU/Skin and 5.33 Log CFU/Skin and 6.64 Log CFU/Skin and 5.97 Log CFU/Skin; antibacterial activity after topical application [3]: potent antibacterial activity; Max. % inhibition at 100 µM (HepG2 cells): Max. % inhibition at 100 µM: 1.96%"
